How the values were obtained:
[1] = system: NMDA receptor-mediated synaptic transmission in hippocampal slices; details: reference antagonists, 0 Mg++, general statement; cited from earlier work
[2] = system: neuronal damage in the hippocampus; experiment: Test D: ischemia induced by carotid occlusion in the gerbil model; assay type: in vivo, adult female Mongolian gerbils; details: 10 mg/Kg intraperitoneally, 45 minutes before and 5 minutes after occlusion
Text: (§1) The actions of compounds of formula I as antagonists at the glycine receptor of the NMDA receptor complex can be shown by one or more standard tests such as the [^3 H]-glycine binding assay (Test A), by functional assays in vitro such as tests for measuring glutamate-evoked contractions of the guinea pig ileum (Test B) and/or tests for measuring antagonism of NMDA-induced evoked response in hippocampal slices (Test C), and by tests in vivo such as ischemia induced by carotid occlusion in the gerbil model (Test D).
When testing in vivo using the gerbil ischemic model, adult female Mongolian gerbils (50-70 g) are anesthetized with 2 to 3% halothane. The bilateral common carotid arteries at the neck are exposed and occluded with microaneurysm clips. After 10 min (unless specified), the clips are removed and the blood flow through the carotid arteries is restored and the skin is sutured. […] Gross behavioral observations along with motor activity are recorded for 2 hr on the first (24 hr) day following the occlusion. […]
Sections (7 micron) are evaluated from each brain. […] The average brain damage rating score for each group is recorded, and the damage scores of the drug treated group are compared to the vehicle-treated group using Wilcoxon-Rank Sum test. […]

[3] = target: T1, glycine receptor of the NMDA receptor complex (Rattus norvegicus, UniProt P35439); experiment: Test A: [^3 H]-glycine binding assay; parameters: species or system male Sprague-Dawley rats; details: 20 nanomolar [^3 H]-glycine, rat cortical/hippocampal synaptic membranes, pH 7.1, 30 minutes at 4° C.
T1 construct: neuronal synaptic membranes are prepared from adult (about 250 g) male Sprague-Dawley rats; from tissue; host or cells: cerebral cortices and hippocampi of adult male Sprague-Dawley rats, synaptic membranes
Text: as §1
In the [^3 H]-glycine binding assay, neuronal synaptic membranes are prepared from adult (about 250 g) male Sprague-Dawley rats. Freshly dissected cortices and hippocampi are homogenized in 0.32M sucrose (110 mg/mL). Synaptosomes are isolated by centrifugation (1000 xg, 10 min), the supernatant is pelleted (20,000 xg, 20 min) and resuspended in double-distilled water. The suspension was centrifuged for 20 minutes at 8,000 xg. The resulting […] and buffy coat are washed twice (48,000 xg, 10 mins, resuspension in double-deionized water). The final pellet is quickly frozen (dry ice/ethanol bath) under double-deionized water and stored at -70° C.
On the day of the experiment, thawed synaptic membranes are homogenized with a Brinkmann Polytron (™, Brinkmann Instruments, Westbury, N.Y.) tissue homogenizer in 50 millimolar tris(hydroxymethyl)aminomethane citrate, pH 7.1. The membranes are incubated with 0.04% Sufact-AMPS X100 (™, Pierce, Rockford, Ill.) in buffer for 20 minutes at 37° C. and washed six times by centrifugation (48,000 xg, 10 min) and resuspended in buffer. The final pellet is homogenized at 200 mg wet weight/mL of the buffer for the binding assay.
For [^3 H]-glycine binding at the N-methyl-D-aspartate receptor, 20 nanomolar [^3 H]-glycine (40-60 Ci/mmol, New England Nuclear, Boston, Mass.) is incubated with the membranes suspended in 50 millimolar tris (hydroxymethyl)aminomethane citrate, pH 7.1 for 30 minutes at 4° C. Glycine, 1 millimolar, is used to define the nonspecific binding. […] Radioactivity is estimated by liquid scintillation counting. […]

[4] = system: glutamate-evoked contractions of the guinea pig ileum; experiment: Test B: glutamate-evoked contractions of the guinea pig ileum; assay type: cell-based; details: Cavia porcellus; twitch responses evoked with 100 micromolar glutamate
Text: as §1
For glutamate-evoked contractions of the guinea pig ileum, the methodology is as described previously (Luzzi et. al., Br. J. Pharmacol., 95, 1271-1277 (1989)). The longitudinal muscle and associated myenteric plexus are removed and placed in oxygenated modified Krebs-Henseleit solution (118 millimolar NaCl, 4.7 millimolar KCl, 2.5 millimolar CaCl2, 1.2 millimolar KH2 PO4, 25 millimolar NaHCO3, and 11 millimolar glucose). Tissues are suspended on glass rods in organ baths under a resting tension of 0.5 g. After an initial depolarization with 80 millimolar potassium ion to remove possible blockade of the NMDA receptor channel complex with magnesium ion, twitch responses are evoked with 100 micromolar glutamate. Isometric mechanical responses are recorded. Tissues are equilibrated for at least 2 hours prior to addition of compounds.
A dose response curve for the effect of the unknown on the magnitude of the glutamate-evoked contractions is generated. Glutamate-evoked contractions are generated at 20 minute intervals, with the test compound added 5 minutes before the glutamate. The magnitude of the contraction with each dose of the unknown is expressed relative to the control, the third contraction evoked by 100 micromolar glutamate alone in the same tissue bath. The IC50 is obtained from a least-squares regression of a logit-log transformation of the data.
After the last contraction for the dose-response curve, 100 micromolar glycine is added to the bath 10 minutes after the previous addition of glutamate. […]

[5] = system: NMDA receptor-mediated synaptic transmission in hippocampal slices; experiment: Test C: hippocampal slice test (HST), antagonism of NMDA-induced evoked response; assay type: cell-based, male Sprague-Dawley rats; details: 0 Mg++; for inhibition of the secondary PSs (antagonism) / reversal of the inhibition by D-serine: Example 1 at 15.2 μM, Example 4 at 10 μM; for concentration at which glycine antagonism is exhibited: evaluated at a multiple of the Test B IC50
Text: as §1
The characterization of a compound as a glycine antagonist in the hippocampal slice test (HST) is dependent on (1) the ability of the compound to inhibit NMDA receptor-mediated synaptic transmission in hippocampal slices and (2) the subsequent reversal of these inhibitory effects by D-serine.
The procedure for the HST is as follows. Transverse hippocampal slices are obtained from male Sprague-Dawley rats weighting 80-150 gm. The rats are decapitated and the brains quickly removed and placed in cold Krebs-Ringersolution which contains (in millimolar) NaCl (122.6), NaHCO3 (26.2), KCl (5.4), MgSO4 (2.0), NaH2 PO4 (1.2), CaCl2 (2.0), and D-glucose (10.0). The hippocampus is dissected free from surrounding tissues, and 495 microns thick slices are cut and immediately transferred to a humidified static interface chamber with a 95% O2 :5% CO2 atmosphere at room temperature. Following a 1-hour equilibration period, slices are placed one at a time into a small perfusion chamber where they are completely submerged in continuously flowing oxygenated 2 millimolar Mg++ perfusate (4 mL/min) at 33° C. and allowed to equilibrate for 10 to 15 min.
For the electrophysiology part of the experiments, bipolar tungsten stimulating electrodes are positioned in the stratum radiatum of the CA3 cell body region of the hippocampus and a single-barrel glass microelectrode filled with Krebs-Ringer solution is positioned in the CA1 cell body region. Low frequency stimulation is then applied to area CA3 which evokes a primary population spike (PS) recorded from CA1. The primary PS represents the summation of a multiple of synaptic potentials mediated via the quisqualate receptor. The stimulus intensity is adjusted to evoke a PS of 1-4 mV amplitude and is maintained at this intensity throughout the experiment.
When the perfusion medium is then changed from 1 millimolar Mg++ to one containing 0 Mg++, the primary PS is followed by the appearance of many secondary PSs. The appearance of the secondary PSs are attributed to the unmasking of NMDA-mediated synaptic events in 0 Mg++. […] The effects of directly acting NMDA and indirectly acting NMDA (ie, glycine) receptor antagonists can also be differentiated by the ability of D-serine to reverse this inhibition.

| Compound | reversal of the inhibition of the secondary PSs by D-serine [1] | IC50 [3] | IC50 [4] | further results |
| --- | --- | --- | --- | --- |
| O=C(O)c1cc(O)c2ccc(Cl)cc2n1 [7-chlorokynurenic acid] | reversed by D-serine | – | – | inhibition of the secondary PSs [1]: inhibit the secondary PSs |
| NC(CCCP(=O)(O)O)C(=O)O (stereo not shown) [APV] | not reversed by D-serine | – | – | – |
| O=C(O)C1CN(CCCP(=O)(O)O)CCN1 (stereo not shown) [CPP] | not reversed by D-serine | – | – | – |
| O=c1[nH][nH]c(=O)c2c1[nH]c1cc(Cl)ccc12 [Example 1] | – | 0.55 µM | 13 µM | neuroprotection (relative to sham-operated control) [2]: 34%; inhibition of the secondary PSs (antagonism) [5]: antagonist; reversal of the inhibition by D-serine [5]: reversible by D-serine; concentration at which glycine antagonism is exhibited [5]: 15.2 µM |
| O=c1[nH][nH]c(=O)c2c1[nH]c1cc(Cl)cc(Cl)c12 [Example 4] | – | 0.33 µM | 6.4 µM | neuroprotection (relative to sham-operated control) [2]: over 75%; inhibition of the secondary PSs (antagonism) [5]: antagonist; reversal of the inhibition by D-serine [5]: reversible by D-serine; concentration at which glycine antagonism is exhibited [5]: 10 µM |
| O=c1[nH][nH]c(=O)c2c1[nH]c1cc(C(F)(F)F)cc(C(F)(F)F)c12 [Example 7, 7,9-Ditrifluoromethylpyridazino[4,5-b]indole-1,4-dione] | – | 2.7 µM | 69 µM | – |
| NC1CCN(O)C1=O (stereo not shown) [HA-966] | reversed by D-serine | – | – | inhibition of the secondary PSs [1]: inhibit the secondary PSs |
| C[C@]12N[C@H](Cc3ccccc31)c1ccccc12 [MK-801] | not reversed by D-serine | – | – | – |
| c1ccc(C2(N3CCCCC3)CCCCC2)cc1 [PCP] | not reversed by D-serine | – | – | – |

— patent publication US5652239A, “Pyridazinedione derivatives useful in treatment of neurological disorders” (Imperial Chemical Company, priority 1991, dated 1997)
